From patent publication US10550142B2, “Quercetin-based compound” (AMOREPACIFIC CORPORATION, priority 2016, dated 2020)

Tested on: skin
Test: Cumulative skin irritation test, HRIPT (human repeated insult patch test)
Type: in vivo
Parameters: key to skin reactivity (ICDRG criteria): −: Negative (no reaction); ±: Suspicious or slight erythema, etc.; +: Weak reaction (not accompanied by vesicles), erythema, papules; ++: Severe reaction (accompanied by vesicles), erythema, papules, vesicles; +++: Strong reaction, bullae
Settings: for Number of subjects showing ±, + or ++ reactivity 1st: 1st patch; for Number of subjects showing ±, + or ++ reactivity 2nd: 2nd patch; for Number of subjects showing ±, + or ++ reactivity 3rd: 3rd patch; for Number of subjects showing ±, + or ++ reactivity 4th: 4th patch; for Number of subjects showing ±, + or ++ reactivity 5th: 5th patch; for Number of subjects showing ±, + or ++ reactivity 6th: 6th patch; for Number of subjects showing ±, + or ++ reactivity 7th: 7th patch; for Number of subjects showing ±, + or ++ reactivity 8th: 8th patch; for Number of subjects showing ±, + or ++ reactivity 9th: 9th patch; for Average reactivity: less than 3 = safe
Description: HRIPT (human repeated insult patch test) was performed to evaluate the cumulative skin irritation of quercetin 3-O-[3-O″-(E)-p-coumaroyl][β-D-glucopyranosyl-(1→3)-O-α-L-rhamnopyranosyl-(1→6)-O-β-D-glucopyranoside] and quercetin 3-O-[3-O″-(E)-p-coumaroyl][α-L-rhamnopyranosyl-(1→6)-O-β-D-glucopyranoside] and determine the range of concentration applicable to the skin. Specifically, 15 healthy adult subjects were randomly selected, and 20 μl of a test composition (composition for the skin including an emulsifier, a stabilizer, purified water, etc. in addition to each of the above compounds) containing 0.5% by weight, 1% by weight or 3% by weight of each of the compounds was dropped into each chamber (IQ chamber, Epitest Ltd, Finland) The patch was applied to the upper right side of the back of the subject, and after 24 hours from the application, it was replaced with a new patch. In this way, a total of 9 patches were applied, 3 times a week for 3 weeks. The skin reaction was checked before and after application of each patch. The skin reaction was checked until after 48 hours from the removal of the final patch, and the average reactivity was calculated. The skin reaction was evaluated according to the criteria of the International Contact Dermatitis Research Group (ICDRG). In the above table, “novel substance 31” denotes quercetin 3-O-[3-O″-(E)-p-coumaroyl][β-D-glucopyranosyl-(1→3)-O-α-L-rhamnopyranosyl-(1→6)-O-β-D-glucopyranoside], and “novel substance 32” denotes quercetin 3-O-[3-O″-(E)-p-coumaroyl][α-L-rhamnopyranosyl-(1→6)-O-β-D-glucopyranoside.

[1] = 0.5% by weight, line 1 of 3 (±)
[2] = 0.5% by weight, line 2 of 3 (+)
[3] = 0.5% by weight, line 3 of 3 (++)

With CC1OC(OCC2OC(Oc3c(-c4ccc(O)c(O)c4)oc4cc(O)cc(O)c4c3=O)C(O)C(OC(=O)/C=C/c3ccc(O)cc3)C2O)C(O)C(O)C1O [Novel substance 32, quercetin 3-O-[3-O″-(E)-p-coumaroyl][α-L-rhamnopyranosyl-(1→6)-O-β-D-glucopyranoside]] the “Number of subjects showing ±, + or ++ reactivity 1st” value (from here on “Number … + or ++ reactivity 1st”) [1] was 0 number of persons, the “Number … + or ++ reactivity 1st” value [2] was 0 number of persons and the “Number … + or ++ reactivity 1st” value [3] was 0 number of persons. For the same molecule, the “Number of subjects showing ±, + or ++ reactivity 2nd” value (from here on “Number … + or ++ reactivity 2nd”) [1] was 0 number of persons, the “Number … + or ++ reactivity 2nd” value [2] was 0 number of persons and the “Number … + or ++ reactivity 2nd” value [3] was 0 number of persons. For the same molecule, the “Number of subjects showing ±, + or ++ reactivity 3rd” value (from here on “Number … + or ++ reactivity 3rd”) [1] was 0 number of persons, the “Number … + or ++ reactivity 3rd” value [2] was 0 number of persons and the “Number … + or ++ reactivity 3rd” value [3] was 0 number of persons. For the same molecule, the “Number of subjects showing ±, + or ++ reactivity 4th” value (from here on “Number … + or ++ reactivity 4th”) [1] was 0 number of persons, the “Number … + or ++ reactivity 4th” value [2] was 0 number of persons and the “Number … + or ++ reactivity 4th” value [3] was 0 number of persons. The “Number of subjects showing ±, + or ++ reactivity 5th” value (from here on “Number … + or ++ reactivity 5th”) [1] was 0 number of persons, the “Number … + or ++ reactivity 5th” value [2] was 0 number of persons and the “Number … + or ++ reactivity 5th” value [3] was 0 number of persons. The “Number of subjects showing ±, + or ++ reactivity 6th” value (from here on “Number … + or ++ reactivity 6th”) [1] was 0 number of persons, the “Number … + or ++ reactivity 6th” value [2] was 0 number of persons and the “Number … + or ++ reactivity 6th” value [3] was 0 number of persons. For the same molecule, the “Number of subjects showing ±, + or ++ reactivity 7th” value (from here on “Number … + or ++ reactivity 7th”) [1] was 0 number of persons, the “Number … + or ++ reactivity 7th” value [2] was 0 number of persons and the “Number … + or ++ reactivity 7th” value [3] was 0 number of persons. The “Number of subjects showing ±, + or ++ reactivity 8th” value (from here on “Number … + or ++ reactivity 8th”) [1] was 0 number of persons, the “Number … + or ++ reactivity 8th” value [2] was 0 number of persons and the “Number … + or ++ reactivity 8th” value [3] was 0 number of persons. For the same molecule, the “Number of subjects showing ±, + or ++ reactivity 9th” value (from here on “Number … + or ++ reactivity 9th”) [1] was 0 number of persons, the “Number … + or ++ reactivity 9th” value [2] was 0 number of persons and the “Number … + or ++ reactivity 9th” value [3] was 0 number of persons. For the same molecule, the Average reactivity (0.5% by weight) was 0, the “Number … + or ++ reactivity 1st” value (1% by weight, line 1 of 3 (±)) was 0 number of persons and the “Number … + or ++ reactivity 1st” value (1% by weight, line 2 of 3 (+)) was 0 number of persons. The “Number … + or ++ reactivity 1st” value (1% by weight, line 3 of 3 (++)) was 0 number of persons, the “Number … + or ++ reactivity 2nd” value (1% by weight, line 1 of 3 (±)) was 0 number of persons and the “Number … + or ++ reactivity 2nd” value (1% by weight, line 2 of 3 (+)) was 0 number of persons. The “Number … + or ++ reactivity 2nd” value (1% by weight, line 3 of 3 (++)) was 0 number of persons, the “Number … + or ++ reactivity 3rd” value (1% by weight, line 1 of 3 (±)) was 0 number of persons and the “Number … + or ++ reactivity 3rd” value (1% by weight, line 2 of 3 (+)) was 0 number of persons. The “Number … + or ++ reactivity 3rd” value (1% by weight, line 3 of 3 (++)) was 0 number of persons, the “Number … + or ++ reactivity 4th” value (1% by weight, line 1 of 3 (±)) was 0 number of persons and the “Number … + or ++ reactivity 4th” value (1% by weight, line 2 of 3 (+)) was 0 number of persons. The “Number … + or ++ reactivity 4th” value (1% by weight, line 3 of 3 (++)) was 0 number of persons, the “Number … + or ++ reactivity 5th” value (1% by weight, line 1 of 3 (±)) was 0 number of persons and the “Number … + or ++ reactivity 5th” value (1% by weight, line 2 of 3 (+)) was 0 number of persons. The “Number … + or ++ reactivity 5th” value (1% by weight, line 3 of 3 (++)) was 0 number of persons, the “Number … + or ++ reactivity 6th” value (1% by weight, line 1 of 3 (±)) was 0 number of persons and the “Number … + or ++ reactivity 6th” value (1% by weight, line 2 of 3 (+)) was 0 number of persons. The “Number … + or ++ reactivity 6th” value (1% by weight, line 3 of 3 (++)) was 0 number of persons, the “Number … + or ++ reactivity 7th” value (1% by weight, line 1 of 3 (±)) was 0 number of persons and the “Number … + or ++ reactivity 7th” value (1% by weight, line 2 of 3 (+)) was 0 number of persons. For the same molecule, the “Number … + or ++ reactivity 7th” value (1% by weight, line 3 of 3 (++)) was 0 number of persons, the “Number … + or ++ reactivity 8th” value (1% by weight, line 1 of 3 (±)) was 0 number of persons and the “Number … + or ++ reactivity 8th” value (1% by weight, line 2 of 3 (+)) was 0 number of persons. The “Number … + or ++ reactivity 8th” value (1% by weight, line 3 of 3 (++)) was 0 number of persons, the “Number … + or ++ reactivity 9th” value (1% by weight, line 1 of 3 (±)) was 0 number of persons and the “Number … + or ++ reactivity 9th” value (1% by weight, line 2 of 3 (+)) was 0 number of persons. The “Number … + or ++ reactivity 9th” value (1% by weight, line 3 of 3 (++)) was 0 number of persons, the Average reactivity (1% by weight) was 0 and the “Number … + or ++ reactivity 1st” value (3% by weight, line 1 of 3 (±)) was 0 number of persons. For the same molecule, the “Number … + or ++ reactivity 1st” value (3% by weight, line 2 of 3 (+)) was 0 number of persons, the “Number … + or ++ reactivity 1st” value (3% by weight, line 3 of 3 (++)) was 0 number of persons and the “Number … + or ++ reactivity 2nd” value (3% by weight, line 1 of 3 (±)) was 0 number of persons. For the same molecule, the “Number … + or ++ reactivity 2nd” value (3% by weight, line 2 of 3 (+)) was 0 number of persons, the “Number … + or ++ reactivity 2nd” value (3% by weight, line 3 of 3 (++)) was 0 number of persons and the “Number … + or ++ reactivity 3rd” value (3% by weight, line 1 of 3 (±)) was 0 number of persons. For the same molecule, the “Number … + or ++ reactivity 3rd” value (3% by weight, line 2 of 3 (+)) was 0 number of persons, the “Number … + or ++ reactivity 3rd” value (3% by weight, line 3 of 3 (++)) was 0 number of persons and the “Number … + or ++ reactivity 4th” value (3% by weight, line 1 of 3 (±)) was 0 number of persons. For the same molecule, the “Number … + or ++ reactivity 4th” value (3% by weight, line 2 of 3 (+)) was 0 number of persons, the “Number … + or ++ reactivity 4th” value (3% by weight, line 3 of 3 (++)) was 0 number of persons and the “Number … + or ++ reactivity 5th” value (3% by weight, line 1 of 3 (±)) was 0 number of persons. For the same molecule, the “Number … + or ++ reactivity 5th” value (3% by weight, line 2 of 3 (+)) was 0 number of persons, the “Number … + or ++ reactivity 5th” value (3% by weight, line 3 of 3 (++)) was 0 number of persons and the “Number … + or ++ reactivity 6th” value (3% by weight, line 1 of 3 (±)) was 0 number of persons. The “Number … + or ++ reactivity 6th” value (3% by weight, line 2 of 3 (+)) was 0 number of persons, the “Number … + or ++ reactivity 6th” value (3% by weight, line 3 of 3 (++)) was 0 number of persons and the “Number … + or ++ reactivity 7th” value (3% by weight, line 1 of 3 (±)) was 0 number of persons. For the same molecule, the “Number … + or ++ reactivity 7th” value (3% by weight, line 2 of 3 (+)) was 0 number of persons, the “Number … + or ++ reactivity 7th” value (3% by weight, line 3 of 3 (++)) was 0 number of persons and the “Number … + or ++ reactivity 8th” value (3% by weight, line 1 of 3 (±)) was 0 number of persons. The “Number … + or ++ reactivity 8th” value (3% by weight, line 2 of 3 (+)) was 0 number of persons, the “Number … + or ++ reactivity 8th” value (3% by weight, line 3 of 3 (++)) was 0 number of persons and the “Number … + or ++ reactivity 9th” value (3% by weight, line 1 of 3 (±)) was 0 number of persons. For the same molecule, the “Number … + or ++ reactivity 9th” value (3% by weight, line 2 of 3 (+)) was 0 number of persons, the “Number … + or ++ reactivity 9th” value (3% by weight, line 3 of 3 (++)) was 0 number of persons and the Average reactivity (3% by weight) was 0. The “skin reactivity (ICDRG criteria)” value (within the content range 0.5, 1, 3% by weight, 9 patches, 15 subjects) was “−”.
